Tested on: MDA MB 231 cells
Test: Antiproliferation assay in MDA MB 231 cells (Cell Titer Glo)
Format: cell-based
Details: Homo sapiens, MDA-MB-231, 216 h, MDAMB231 cell line, 9 day treatment, racemic compounds (Table 2)
Description: Antiproliferation Assay in MDA MB 231 Cells MDA MB 231 cells were seeded in 96 well plate at a seeding density of 250 cells/well. The cells were allowed to settle overnight under standard incubator conditions (37° C., 5% CO2). Next day treatment with increasing dose of test compounds and reference compounds were done to the respective wells and the cells were further incubated under standard cell culture conditions for another 4 days. On the 5th day, media was replenished with fresh treatment and cells were incubated for a total of 9 day treatment period. On the day of termination, appropriate volume of Cell Titer Glo reagent was added to the treatment (and control) wells and the plates were kept on a plate shaker @300 RPM for 15 min. Luminiscence reading (RLU) was […] RLU is directly proportional to ATP content and is directly related to number of metabolically active cells in the respective well. Calculation: a. Blank Correction: RLU of the Wells Containing No Cells is Considered as Blank and Subtracted from all RLU of the Treated and Control Wells [formula]

CCC(=O)N1N=C(c2c(C)c3ccc(C)cc3[nH]c2=O)CC1c1ccc(C)cc1 (stereo not drawn) [Example 75, 4,7-dimethyl-3-(1-propionyl-5-(p-tolyl)-4,5-dihydro-1H-pyrazol-3-yl)quinolin-2(1H)-one] and CCC(=O)N1N=C(c2c(C)c3ccccc3[nH]c2=O)CC1c1ccc(C)cc1 (racemic) [Example 60, 4-methyl-3-(1-propionyl-5-(p-tolyl)-4,5-dihydro-1H-pyrazol-3-yl)quinolin-2(1H)-one] cannot be ordered by inhibition at 10 µM: no less than 50% for the first, no less than 50% for the second.

CCC(=O)N1N=C(c2c(C)c3ccsc3[nH]c2=O)CC1Cc1ccccc1 (stereo not drawn) [Example 71, 5-(5-benzyl-1-propionyl-4,5-dihydro-1H-pyrazol-3-yl)-4-methylthieno[2,3-b]pyridin-6(7H)-one] and CCC(=O)N1N=C(c2c(C)c3ccsc3[nH]c2=O)CC1c1ccsc1 (racemic) [Example 33, 4-methyl-5-(1-propionyl-5-(thiophen-3-yl)-4,5-dihydro-1H-pyrazol-3-yl)thieno[2,3-b]pyridin-6(7H)-one] cannot be ordered by inhibition at 10 µM: no less than 50% for the first, less than 50% for the second.

CCC(=O)N1N=C(c2c(C)c3ccc(C)nc3[nH]c2=O)CC1c1ccc(C)cc1 (stereo not drawn) [Example 84, 4,7-dimethyl-3-(1-propionyl-5-(p-tolyl)-4,5-dihydro-1H-pyrazol-3-yl)-1,8-naphthyridin-2(1H)-one] and CCC(=O)N1N=C(c2c(C)c3cccnc3[nH]c2=O)CC1c1ccc(C)cc1 (stereo not drawn) [Example 73, 4-methyl-3-(1-propionyl-5-(p-tolyl)-4,5-dihydro-1H-pyrazol-3-yl)-1,8-naphthyridin-2(1H)-one] cannot be ordered by inhibition at 10 µM: no less than 50% for the first, no less than 50% for the second.

CCC(=O)N1N=C(c2c(C)c3ccnc(C)c3[nH]c2=O)CC1c1ccc(C)cc1 (racemic) [Example 78, 4,8-dimethyl-3-(1-propionyl-5-(p-tolyl)-4,5-dihydro-1H-pyrazol-3-yl)-1,7-naphthyridin-2(1H)-one] and CCC(=O)N1N=C(c2c(C)c3cc(Cl)ncc3[nH]c2=O)CC1c1ccc(C)cc1 (stereo not drawn) [Example 79, 6-chloro-4-methyl-3-(1-propionyl-5-(p-tolyl)-4,5-dihydro-1H-pyrazol-3-yl)-1,7-naphthyridin-2(1H)-one] cannot be ordered by inhibition at 10 µM: no less than 50% for the first, no less than 50% for the second.

CCC(=O)N1N=C(c2c(C)c3cc(Cl)ccc3n(C)c2=O)CC1c1ccc(OC)cc1 (stereo not drawn) [Example 18, 6-chloro-3-(5-(4-methoxyphenyl)-1-propionyl-4,5-dihydro-1H-pyrazol-3-yl)-1,4-dimethylquinolin-2(1H)-one] and CCC(=O)N1N=C(c2c(C)c3cc(Cl)ccc3[nH]c2=O)CC1c1ccc(OC)cc1 (stereo not drawn) [Example 1, 6-Chloro-3-(5-(4-methoxyphenyl)-1-propionyl-4,5-dihydro-1H-pyrazol-3-yl)-4-methylquinolin-2(1H)-one] cannot be ordered by inhibition at 10 µM: less than 50% for the first, no less than 50% for the second.

CCC(=O)N1N=C(c2c(C)c3ccsc3[nH]c2=O)CC1c1ccc(N(C)C)cc1 (stereo not drawn) [Example 39, 5-(5-(4-(dimethylamino)phenyl)-1-propionyl-4,5-dihydro-1H-pyrazol-3-yl)-4-methylthieno[2,3-b]pyridin-6(7H)-one] and CCC(=O)N1N=C(c2c(C)c3ccsc3[nH]c2=O)CC1c1ccc(=O)[nH]c1 (stereo not drawn) [Example 26, 4-methyl-5-(5-(6-oxo-1,6-dihydropyridin-3-yl)-1-propionyl-4,5-dihydro-1H-pyrazol-3-yl)thieno[2,3-b]pyridin-6(7H)-one] cannot be ordered by inhibition at 10 µM: no less than 50% for the first, less than 50% for the second.

CCC(=O)N1N=C(c2c(C)c3ccsc3[nH]c2=O)CC1c1cnc(C)nc1 (stereo not drawn) [Example 51, 4-methyl-5-(5-(2-methylpyrimidin-5-yl)-1-propionyl-4,5-dihydro-1H-pyrazol-3-yl)thieno[2,3-b]pyridin-6(7H)-one] and CCC(=O)N1N=C(c2c(C)c3ccsc3[nH]c2=O)CC1c1ccc(C)nc1 (racemic) [Example 45, 4-methyl-5-(5-(6-methylpyridin-3-yl)-1-propionyl-4,5-dihydro-1H-pyrazol-3-yl)thieno[2,3-b]pyridin-6(7H)-one] cannot be ordered by inhibition at 10 µM: less than 50% for the first, no less than 50% for the second.

CCC(=O)N1N=C(c2c(C)c3ccsc3[nH]c2=O)CC1c1cnc(C)c(Cl)c1 (stereo not drawn) [Example 52, 5-(5-(5-chloro-6-methylpyridin-3-yl)-1-propionyl-4,5-dihydro-1H-pyrazol-3-yl)-4-methylthieno[2,3-b]pyridin-6(7H)-one] and CCC(=O)N1N=C(c2c(C)c3ccsc3[nH]c2=O)CC1c1cnc(C)cc1Cl (stereo not drawn) [Example 56, 5-(5-(4-chloro-6-methylpyridin-3-yl)-1-propionyl-4,5-dihydro-1H-pyrazol-3-yl)-4-methylthieno[2,3-b]pyridin-6(7H)-one] cannot be ordered by inhibition at 10 µM: no less than 50% for the first, no less than 50% for the second.

COc1ccc(C2CC(c3c(C)c4cc(Cl)ccc4[nH]c3=O)=NN2C(=O)C2CCOCC2)cc1 (stereo not drawn) [Example 3, 6-chloro-3-(5-(4-methoxyphenyl)-1-(tetrahydro-2H-pyran-4-carbonyl)-4,5-dihydro-1H-pyrazol-3-yl)-4-methylquinolin-2(1H)-one] and COc1ccc(C2CC(c3c(C)c4cc(Cl)ccc4[nH]c3=O)=NN2C)cc1 (stereo not drawn) [Example 5, 6-Chloro-3-(5-(4-methoxyphenyl)-1-methyl-4,5-dihydro-1H-pyrazol-3-yl)-4-methylquinolin-2(1H)-one] cannot be ordered by inhibition at 10 µM: no less than 50% for the first, less than 50% for the second.

CCC(=O)N1N=C(c2c(C)c3ccsc3[nH]c2=O)CC1c1cnc(C)cc1OC (stereo not drawn) [Example 53, 5-(5-(4-methoxy-6-methylpyridin-3-yl)-1-propionyl-4,5-dihydro-1H-pyrazol-3-yl)-4-methylthieno[2,3-b]pyridin-6(7H)-one] and CCC(=O)N1N=C(c2c(C)c3ccsc3[nH]c2=O)CC1c1cnc(OC)s1 (stereo not drawn) [Example 30, 5-(5-(2-methoxythiazol-5-yl)-1-propionyl-4,5-dihydro-1H-pyrazol-3-yl)-4-methylthieno[2,3-b]pyridin-6(7H)-one] cannot be ordered by inhibition at 10 µM: less than 50% for the first, no less than 50% for the second.

CCC(=O)N1N=C(c2c(C)c3cc(Cl)sc3[nH]c2=O)CC1c1ccc(C)cc1 (stereo not drawn) [Example 72, 2-chloro-4-methyl-5-(1-propionyl-5-(p-tolyl)-4,5-dihydro-1H-pyrazol-3-yl)thieno[2,3-b]pyridin-6(7H)-one] and CCC(=O)N1N=C(c2c(C)c3cccnc3[nH]c2=O)CC1c1ccc(OC)cc1 (stereo not drawn) [Example 13, 3-(5-(4-Methoxyphenyl)-1-propionyl-4,5-dihydro-1H-pyrazol-3-yl)-4-methyl-1,8-naphthyridin-2(1H)-one] cannot be ordered by inhibition at 10 µM: no less than 50% for the first, no less than 50% for the second.

CCC(=O)N1N=C(c2c(C)c3ccsc3[nH]c2=O)CC1c1ccc(OC)cn1 (stereo not drawn) [Example 25, 5-(5-(5-methoxypyridin-2-yl)-1-propionyl-4,5-dihydro-1H-pyrazol-3-yl)-4-methylthieno[2,3-b]pyridin-6(7H)-one] and CCC(=O)N1N=C(c2c(C)c3ccsc3[nH]c2=O)CC1c1cnc(C)s1 (stereo not drawn) [Example 57, 4-methyl-5-(5-(2-methylthiazol-5-yl)-1-propionyl-4,5-dihydro-1H-pyrazol-3-yl)thieno[2,3-b]pyridin-6(7H)-one] cannot be ordered by inhibition at 10 µM: less than 50% for the first, no less than 50% for the second.

Molecule CCC(=O)N1N=C(c2c(C)c3cc(Cl)ccc3[nH]c2=O)CC1c1cn(C)c2ccccc12 (stereo not drawn) [Example 24, 6-chloro-4-methyl-3-(5-(1-methyl-1H-indol-3-yl)-1-propionyl-4,5-dihydro-1H-pyrazol-3-yl)quinolin-2(1H)-one] has an inhibition at 10 µM of no less than 50%.

Same assay, conditions: Homo sapiens, MDA-MB-231, 216 h, MDAMB231 cell line, 9 day treatment, separated enantiomers A/B (Table 3)

CCC(=O)N1N=C(c2c(C)c3ccsc3[nH]c2=O)CC1c1ccsc1 (single isomer, unassigned) [Example 33B] and CCC(=O)N1N=C(c2c(C)c3ccnc(C)c3[nH]c2=O)CC1c1ccc(C)cc1 (single isomer, unassigned) [Example 78A] cannot be ordered by inhibition at 10 µM: less than 50% for the first, less than 50% for the second.

Same assay, conditions: MDAMB231 cell line, 9 day treatment, separated enantiomers A/B (Table 3), 10 µM

In the case of CCC(=O)N1N=C(c2c(C)c3ccsc3[nH]c2=O)CC1c1ccc(C)nc1 (single isomer, unassigned) [Example 45A], the “% inhibition @ 10 μM” value is reported as “++ (<50% ++)”.
For CCC(=O)N1N=C(c2c(C)c3ccc(Cl)cc3[nH]c2=O)CC1c1ccc(C)cc1 (single isomer, unassigned) [Example 80B], the “% inhibition @ 10 μM” value was “+ (≥50% +)”.
In the case of CCC(=O)N1N=C(c2c(C)c3ccnc(C)c3[nH]c2=O)CC1c1ccc(C)cc1 (single isomer, unassigned) [Example 78B], the “% inhibition @ 10 μM” value is reported as “+ (≥50% +)”.
